For 34 molecules, EC50 results are on record in patent US12162857B2, “Antiviral compounds” (priority 2022, dated 2024).

A word on the EC50: it is the concentration needed to bring the measured effect to its halfway point. Low readings indicate greater potency, high ones weaker potency.

The test system of test [1] is Human RSV-A (“Long” strain). The test can be described thus: RSV-A assay: CPE in Hep-2 cells, ATPlite readout. In kind it is cell-based. The following applies: human respiratory syncytial virus, 120 h, MOI 0.1, 5-day incubation. The text has this:
Hep-2 cells, (originally derived from tumors grown in irradiated-cortisonised weanling rats that had been injected with epidermoid carcinoma tissue from a person's larynx, but later found to be indistinguishable from HeLa cells by PCR DNA analysis), were used for the culturing of genotype A, “Long” strain RSV. Flasks were inoculated with RSV and viral stocks were collected once cytopathic effect (CPE) was greater than 90%. Viral stocks in 25% sucrose media were snap frozen using liquid nitrogen to increase viral stability. Viral stock titers were quantified by tissue culture infectious dose 50% (TCID50) using 8,000 cells per well and 3-fold viral dilutions across a 96-well plate, cultured for 4 days. Viral stock titers were also quantified by a plaque forming unit assay, as described elsewhere.
Following extensive parameter testing, the final assay is run as follows: Hep-2 cells are seeded into the inner 60 wells of a 96-well plate at 8,000 cells per well in a volume of 50 μL using Growth Media (DMEM without phenol red, 1% L-Glut, 1% Penn/Strep, 1% nonessential amino acids, 10% heat-inactivated FBS). 2-fold serial dilutions of control and test compounds are added to the wells in duplicate in a total volume of 25 μL. Viral stock is then added to the wells at a multiplicity of infection (MOI) of 0.1 in a volume of 25 μL, bringing the total volume of each well to 100 μL. The MOI is calculated using the PFU/mL, or TCID50 if unavailable. Each 96-well plate has a control column of 6 wells with cells and virus but no compound (negative control, max CPE), a column with cells but no compound or virus (positive control, minimum CPE), and a column with no cells or virus or compound (background plate/reagent control). The control wells with cells but no virus are given an additional 25 μL of growth media containing an equal quantity of sucrose as those wells receiving the viral stock in order to keep consistent in media and volume conditions. The outer wells of the plate are filled with 125 μL of moat media (DMEM, 100 Penn/Strep) to act as a thermal and evaporative moat around the test wells. Following a 5-day incubation period, the plates are read using ATPlite (50 uL added per well), which quantifies the amount of ATP (a measure of cell health) present in each well. Assay plates are read using the Envision luminometer. […] EC50 ranges are as follows: A<0.01 μM; B 0.01-0.05 μM; C>0.05 μM.

The subject of test [2] is HMPV A2 TN/94-49. The test can be described thus: HMPV antiviral assay: LLC-MK2 cells, ATP-Lite readout. In kind it is cell-based. The following applies: LLC-MK2, 168 h, MOI 0.005, 7 days incubation. On the procedure:
In vitro HMPV antiviral activity was evaluated using the clinical isolate A2 strain TN 94-49 and LLC-MK2 cells (ATCC #CCL-7), an immortalized kidney epithelial cell line from Macaca mulatta. Compounds were resuspended in dimethyl sulfoxide (DMSO) at 10 mM, serially diluted and added to a 384-well source plate. Subsequently, the compounds were diluted and transferred onto 384-well assay plates using the Echo-650 automated liquid handling system (Beckman Coulter, Indiana). The test compounds were assessed in duplicate at a top concentration of 2 μM followed by 2.5-fold serial dilutions to give a total of 10 concentration points. DMSO control wells were also included on the assay plates and were either infected or not, acting as positive and negative controls. A2 TN 94-49 virus infections were performed in-suspension with LLC-MK2 cells. The cells were washed twice with PBS and removed from the cell-culture flask with 0.25% trypsin-EDTA (Thermo Fisher Scientific, MA). The trypsin-EDTA was inactivated by resuspending in 2% fetal bovine serum (FBS) and OptiMEM (ThermoFisher Scientific, MA) containing 1% penicillin-streptomycin. Cells were pelleted by centrifuging for 5 minutes at 800 rpm, the supernatant was removed, and cells were re-suspended and washed in PBS plus 100 μg/mL CaCl2). This step was performed twice. Cells were then re-suspended in serum-free (SF)-OptiMEM containing 4 μg/mL TPCK-Trypsin (Sigma Aldrich, MO), 1% penicillin-streptomycin (ThermoFisher Scientific, MA) and 100 μg/mL CaCl2). Cells were counted and seeded at a density of 5,000 cells/well, 12.5 μL/well. Virus infections were done at a multiplicity of infection (MOI) of 0.005 with 12.5 μL added per well. Virus infections were performed in infection media which contained SF-OptiMEM, 100 μg/mL CaCl2) and 1% penicillin-streptomycin. HMPV viral stocks are suspended in infection media+5% glycerol, thus an equal volume of infection media+5% glycerol was added to uninfected wells to equalize the final % glycerol across all wells of the assay plate. The final concentration of TPCK-trypsin was 2 μg/mL. The assay plates were incubated at 37° C., 5% CO2 for 7 days. After 7 days incubation, 12.5 μL of ATP-Lite (PerkinElmer, MA) was added to each well and the raw luminescence values were determined using the Envision 2104 (Perkin Elmer, MA). The average of the raw luminescence values for the cells and virus only positive control wells was subtracted from all conditions tested and the percent cell health was determined by dividing these values by the average of the cells only negative control wells. EC50 values were then calculated by non-linear regression using a four-parameter curve logistic equation. The curve fit model employed was XLFit Dose Response One Site Model 200: y=(A+(B/(1+((x/C)^D)))), where A is the minimum y value, B is the maximum y value, C is the log EC50 value, and D is the slope factor. […] EC50 ranges are as follows: A<1 μM; B>1 μM.

With `COc1cc(C(=O)NC[C@](O)(c2cc(C(F)(F)C(N)=O)c(F)c(-c3cc(Cl)c(F)cc3F)n2)C2CC2)cc2cn(C(F)F)nc12` (single isomer, unassigned) [Example 41], in test [1], the EC50 was 10 to 50 nM. In turn, `COc1cc(C(=O)NC[C@](O)(c2cc(C3(C(N)=O)CC3)c(F)c(-c3cc(Cl)c(F)cc3F)n2)C2CC2)cc2cn(C3(F)CC3)nc12` (single isomer, unassigned) [Example 13] came in with an EC50 in test [1] of 10 to 50 nM. For the molecule `COc1cc(C(=O)NC[C@](O)(c2cc(C(F)(F)C(N)=O)c(F)c(-c3ccc(F)c(Cl)c3F)n2)C2CC2)cc2cn(C3CC3)nc12` (single isomer, unassigned) [Example 32], the EC50 in test [1] lay in the range of 10 to 50 nM. For `[2H]C([2H])([2H])C(O)(c1cc([C@@](O)(CNC(=O)c2cc(OC)n3nc(C4CC4)cc3c2)C2CC2)nc(-c2cc(Cl)c(F)cc2F)c1F)C([2H])([2H])[2H]` [Example 187], the EC50 in test [2] is < 1000 nM.

`COc1cc(C(=O)NC[C@@](O)(c2ccccc2)c2cc(C(C)(C)O)c(Cl)c(-c3cccc(Cl)c3Cl)n2)cc2sc(C)nc12` [Example 139]: the EC50 in test [2] is < 1000 nM. On the same count and under the same terms, the result for `COc1cc(C(=O)NC[C@](O)(c2cc(C(C)(C)O)c(F)c(-c3cc(Cl)c(F)cc3F)n2)c2cccs2)cc2cn(C3CC3)nc12` [Example 113] reads < 1000 nM.

Turning to `COc1cc(C(=O)NC[C@](O)(c2cc(C(C)(C)O)c(F)c(-c3cc(Cl)c(F)cc3F)n2)c2cccs2)cc2sc(C)nc12` [Example 115], in test [2], the EC50 was < 1000 nM.

Regarding `COc1cc(C(=O)NC[C@@](O)(c2ccccc2)c2cc(C(C)(C)O)c(F)c(-c3ccc(F)c(Cl)c3Cl)n2)cc2sc(C)nc12` [Example 71], the EC50 in test [2] is < 1000 nM. On the same count and under the same terms, next, `CC(C)(O)c1cc([C@@](O)(CNC(=O)c2cc(Cl)c3nn(C4CC4)cc3c2)c2cccc(F)c2)nc(-c2cc(Cl)c(F)cc2F)c1F` [Example 91]: < 1000 nM; `COc1cc(C(=O)NC[C@@](O)(c2ccccc2)c2cc(C(C)(C)O)c(F)c(-c3cccc(Cl)c3Cl)n2)cc2cn(C(F)F)nc12` [Example 80]: < 1000 nM; `COc1cc(C(=O)NC[C@@](O)(c2ccccc2)c2cc(C(C)(C)O)cc(-c3cccc(Cl)c3Cl)n2)cc2cn(C(F)F)nc12` [Example 150]: < 1000 nM. Still for that read-out and setting: the result for `COc1cc(C(=O)NC[C@](O)(c2cc(C3(O)COC3)c(F)c(-c3cc(Cl)c(F)cc3F)n2)C2CC2)cc2cn(C3CC3)nc12` [Example 167] reads > 1000 nM; that for `COc1cc(C(=O)NC[C@@](O)(c2ccccc2)c2cc(C(C)(C)O)c(Cl)c(-c3cc(Cl)c(F)cc3F)n2)cc2sc(C)nc12` [Example 131], > 1000 nM. Same read-out and setting: next, `COc1cc(C(=O)NC[C@](O)(c2ccc(F)c(-c3cc(F)c(F)cc3F)n2)C2CC2)cc2cn(C3CC3)nc12` [Example 172]: > 1000 nM. On to `COc1cc(C(=O)NC[C@@](O)(c2ccccc2)c2cc(C(C)(C)O)c(Cl)c(-c3cc(Cl)c(F)cc3F)n2)cc2cn(C(F)F)nc12` [Example 134], for which, in test [2], the EC50 was > 1000 nM.

In the case of `COc1cc(C(=O)NC[C@@](O)(c2ccccc2)c2cc(C(C)(C)F)c(F)c(-c3cc(Cl)c(F)cc3F)n2)cc2cn(C3CC3)nc12` [Example 180], the EC50 in test [2] is > 1000 nM. On the same count and under the same terms, next, `COc1cc(C(=O)NC[C@@](O)(c2cccc(F)c2)c2cc(C(C)(C)O)c(F)c(-c3cc(Cl)c(F)cc3F)n2)cc2cn(C(F)F)nc12` [Example 92]: < 1000 nM. The same measure, in the same setting: the result for `CC(C)(O)c1cc([C@@](O)(CNC(=O)c2cc(Cl)c3nn(C4CC4)cc3c2)c2ccccc2)nc(-c2ccc3c(c2Cl)OC(F)(F)O3)c1F` [Example 75] reads > 1000 nM; that for `COc1cc(C(=O)NC[C@@](O)(c2ccccc2)c2cc(C(C)(C)F)c(F)c(-c3cc(Cl)c(F)cc3F)n2)cc2cc(C3CC3)nn12` [Example 181], > 1000 nM; that for `COc1cc(C(=O)NC[C@@](O)(c2cccc(F)c2)c2cc(C(C)(C)O)c(F)c(-c3ccc(F)c(Cl)c3Cl)n2)cc2cn(C(F)F)nc12` [Example 104], < 1000 nM. Regarding `COc1cc(C(=O)NC[C@@](O)(c2ccccc2)c2cc(C(C)(C)O)cc(-c3ccc4c(c3Cl)OC(F)(F)O4)n2)cc2cn(C(F)F)nc12` [Example 158], in test [2], the EC50 is < 1000 nM. In the case of `COc1cc(C(=O)NC[C@@](O)(c2ccccc2)c2cc(C(C)(C)C(N)=O)c(F)c(-c3cc(Cl)c(F)cc3F)n2)cc2sc(C)nc12` [Example 163], the EC50 in test [2] is > 1000 nM. In the case of `COc1cc(C(=O)NC[C@](O)(c2cc(C(C)(C)O)c(F)c(-c3ccc(F)c(Cl)c3F)n2)C2CC2)cc2cn(C3(F)CC3)nc12` [Example 120], the EC50 in test [2] is < 1000 nM. On the same count and under the same terms, the result for `COc1cc(C(=O)NC[C@](O)(c2cc(C(C)(C)F)c(F)c(-c3cc(Cl)c(F)cc3F)n2)C2CC2)cc2cc(C3CC3)nn12` [Example 178] reads > 1000 nM; that for `CCC(O)(CC)c1cc([C@@](O)(CNC(=O)c2cc(OC)c3nn(C4CC4)cc3c2)c2ccccc2)nc(-c2cc(Cl)c(F)cc2F)c1F` [Example 116], < 1000 nM; that for `COc1cc(C(=O)NC[C@@](O)(c2cccc(F)c2)c2cc(C(C)(C)O)c(F)c(-c3ccc4c(c3Cl)OC(F)(F)O4)n2)cc2cn(C(F)F)nc12` [Example 111], < 1000 nM. On to `COc1cc(C(=O)NC[C@@](O)(c2ccccc2)c2cc(C(C)(C)O)cc(-c3ccc4c(c3Cl)OC(F)(F)O4)n2)cc2cn(C3CC3)nc12` [Example 156], for which the EC50 in test [2] is < 1000 nM. On the same count and under the same terms, next, `COc1cc(C(=O)NC[C@@](O)(c2ccccc2)c2cc(C(=O)NC3CC3)c(F)c(-c3cc(Cl)c(F)cc3F)n2)cc2cn(C3CC3)nc12` [Example 194]: > 1000 nM; `CC(C)(O)c1cc(-c2cccc(Cl)c2Cl)nc([C@@](O)(CNC(=O)c2cc(Cl)c3nn(C4CC4)cc3c2)c2ccccc2)c1` [Example 149]: < 1000 nM. On the same count and under the same terms, the result for `COc1cc(C(=O)NC[C@@](O)(c2ccccc2)c2cc(C(C)(C)O)c(F)c(-c3ccc(F)c(Cl)c3F)n2)cc2cn(C(F)F)nc12` [Example 122] reads < 1000 nM; that for `CC(C)(O)c1cc(-c2ccc(F)c(Cl)c2Cl)nc([C@@](O)(CNC(=O)c2cc(Cl)c3nn(C4CC4)cc3c2)c2ccccc2)c1` [Example 153], < 1000 nM. In the case of `COc1cc(C(=O)NC[C@@](O)(c2cccc(F)c2)c2cc(C(C)(C)O)c(F)c(-c3cc(Cl)c(F)cc3F)n2)cc2sc(C)nc12` [Example 89], the EC50 in test [2] was < 1000 nM.

In the case of `COc1cc(C(=O)NC[C@](O)(c2cc(C(C)(C)O)c(F)c(-c3cc(Cl)c(F)cc3F)n2)C2CC2)cc2cn(C(F)F)nc12` [Example 54], in test [2], the EC50 was < 1000 nM.

On to `COc1cc(C(=O)NC[C@](O)(c2cc(C(C)(C)O)c(F)c(-c3ccc(F)c(Cl)c3F)n2)C2CC2)cc2cn(C(F)F)nc12` [Example 118], for which, in test [2], the EC50 is < 1000 nM.
